Measured values as given in US5506217A, “Phosphonates as anti-cancer agents” (The University of British Columbia, priority 1994, dated 1996).

What was measured:
P388 tumor cells = test: colonogenic cell survival assay; assay type: cell-based; conditions: Mus musculus, 120 h, P388, read-out: Colonies formed after 5 days (% of control)
Protocol: (§1) Inhibition of colony formation in soft agar medium (colonogenic cell survival assay) is a more rigorous and direct measurement of cell kill or growth inhibition, and reflects the anti-cancer activity of the test compound. Briefly, tumor cells were cultured in petri dishes in methylcellulose, with or without a phosphonate test compound, and the number of colonies formed during a 5-day incubation period were counted.
The efficacy of 4-hexadecylthio-3-methoxybutane phosphonocholine on the growth of a mouse […] tumor was evaluated. The P388 cell line was cultured in a soft agar in the presence and absence of various concentrations of thioalkylphosphonate for 5 days, the number of tumor colonies formed during this period of time was registered.

L1210 tumor cells = test: colonogenic cell survival assay; assay type: cell-based; conditions: Mus musculus, 120 h, L1210, read-out: Colonies formed after 5 days (% of control)
Protocol: as §1
The effectiveness of S-thioalkylphosphonate on the growth of a lymphoma cell line was also investigated. L1210 is a mouse B-Cell tumor (lymphoma), was tested in soft agar for susceptibility to the cytotoxic action of thioalkylphosphonate.

WEHI-3B tumor cells = test: colonogenic cell survival assay; assay type: cell-based; conditions: Mus musculus, WEHI3B, 120 h, WEHI-3B, read-out: Colonies formed after 5 days (% of control)
Protocol: as §1
Table 17 tabulates data obtained with two differrent phosphonate analogs using a colonogenic assay. Colonogenic assay is one of the most trusted tests for determination of effectiveness of an anti-cancer agent. The test is based on the formation of tumor colonies in vitro in a methyl cellulose or soft agar medium. The following results were obtained with the formation of colonies in methyl cellulose medium after five days in the presence or absence of four phosphonate analogs, two with a thioalkyl chain and two with an alkyloxy chain.

WEHI-3B tumor = WEHI-3B tumor growth in BALB/C mice; assay type: in vivo; conditions: for Tumor volume in cm^3: 500 μg (approx. 25 mg/Kg) daily IM
Protocol: After 3 days one group (n=5) of mice received 500 μg (approximately 25 mg/Kg body weight) of the phosphonate compound of the following formula daily by intramuscular (IM) injection. The size of the resulting tumor was measured using a caliper: [drawing 17]

## CCCCCCCCCCCCCCCCOCC(CP(=O)([O-])OCC[N+](C)(C)C)OC (stereo not shown) [compound VII]
P388 tumor cells; 1.25 μM
  activity at 1.25 µM: 88 ± 6%
P388 tumor cells; 2.5 μM
  activity at 2.5 µM: 79 ± 8%
P388 tumor cells; 5 μM
  activity at 5 µM: 61 ± 7%
P388 tumor cells; 10 μM
  activity at 10 µM: 56 ± 7%
P388 tumor cells; 20 μM
  activity at 20 µM: 29 ± 4%
P388 tumor cells; 40 μM
  activity at 40 µM: 16 ± 2%
L1210 tumor cells; 1.25 μM
  activity at 1.25 µM: 91 ± 7%
L1210 tumor cells; 2.5 μM
  activity at 2.5 µM: 80 ± 11%
L1210 tumor cells; 5 μM
  activity at 5 µM: 55 ± 4%
L1210 tumor cells; 10 μM
  activity at 10 µM: 42 ± 5%
L1210 tumor cells; 20 μM
  activity at 20 µM: 22 ± 3%
L1210 tumor cells; 40 μM
  activity at 40 µM: 14 ± 5%
WEHI-3B tumor cells; 1.25 μM
  activity at 1.25 µM: 88%
WEHI-3B tumor cells; 2.5 μM
  activity at 2.5 µM: 60%
WEHI-3B tumor cells; 5 μM
  activity at 5 µM: 48%
WEHI-3B tumor cells; 10 μM
  activity at 10 µM: 34%
WEHI-3B tumor cells; 20 μM
  activity at 20 µM: 13%
WEHI-3B tumor cells; 40 μM
  activity at 40 µM: 2%
WEHI-3B tumor; 25 mg/Kg body weight per day, intramuscularly
  effect on tumor growth (in words): delayed the onset of tumor growth and reduced the tumor growth significantly
WEHI-3B tumor; day 3 after implantation
  Tumor volume in cm^3: 0.000 ± 0.000 cm^3
WEHI-3B tumor; day 15 after implantation
  Tumor volume in cm^3: 0.000 ± 0.000 cm^3
WEHI-3B tumor; day 17 after implantation
  Tumor volume in cm^3: 0.000 ± 0.000 cm^3
WEHI-3B tumor; day 20 after implantation
  Tumor volume in cm^3: 0.036 ± 0.010 cm^3
WEHI-3B tumor; day 22 after implantation
  Tumor volume in cm^3: 0.117 ± 0.017 cm^3
WEHI-3B tumor; day 24 after implantation
  Tumor volume in cm^3: 0.172 ± 0.025 cm^3
